This passage reports TGI results from PubChem BioAssay (NCI).

Some test systems named below: HL-60(TB) leukemia; HOP-92 NSCLC; HT29 colon; LOX IMVI melanoma; NCI-H226 lung; OVCAR-3 ovarian; SW-620 colon; U251 CNS; UO-31 renal; DU-145 prostate.
Assay in all cases: NCI tumour cell line growth inhibition, 48 h

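Five concentrations, 48 hours, 96-well plates. At the TGI there is no net growth.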

Turning to `CC1(C)OC2CC3COC(=O)C3CC2O1` (stereo not drawn), the TGI with HL-60(TB) leukemia, in the assay on HOP-92 NSCLC, with HT29 colon, in the assay with LOX IMVI melanoma, in the assay on NCI-H226 lung and in the assay on OVCAR-3 ovarian was over 100 µM in each case. Further, the TGI in the assay with SW-620 colon, in the assay with U251 CNS and with UO-31 renal was over 100 µM in each case.
`CCCCCCCCCCCCCCCCNCC(O)CN` (stereo not drawn): the TGI was determined as 4.93 µM with HL-60(TB) leukemia; 9.36 µM in the assay on HOP-92 NSCLC; 4.44 µM in the assay on HT29 colon; 3.45 µM with LOX IMVI melanoma; 25.6 µM with NCI-H226 lung; 6.52 µM in the assay with OVCAR-3 ovarian. In addition, the TGI came to 3.17 µM in the assay with SW-620 colon, 6.26 µM in the assay with U251 CNS and 25.3 µM with UO-31 renal.
In the case of `CCCCOc1c(C(=O)O)cc(Br)cc1C(=O)O`, the TGI in the assay with HOP-92 NSCLC, with LOX IMVI melanoma, in the assay with NCI-H226 lung, in the assay with OVCAR-3 ovarian, in the assay with SW-620 colon and in the assay on U251 CNS was over 100 µM in each case. This molecule also returned a TGI in the assay on UO-31 renal of over 100 µM.
Take `Nc1ncnc2c1sc(=S)n2-c1ccccc1`: the TGI in the assay with HL-60(TB) leukemia, with HOP-92 NSCLC, in the assay with HT29 colon, in the assay with LOX IMVI melanoma, with NCI-H226 lung and in the assay with OVCAR-3 ovarian was over 100 µM in each case. The TGI in the assay on SW-620 colon, with U251 CNS and with UO-31 renal was over 100 µM in each case.
As for `C[N+](C)=c1ccc2nc3c(ccc4ccccc43)oc-2c1`, the TGI with HL-60(TB) leukemia stood at 6.32 µM; in the assay with HOP-92 NSCLC, 32.7 µM; in the assay with HT29 colon, 29.6 µM; in the assay with LOX IMVI melanoma, 15.4 µM; in the assay on NCI-H226 lung it was 33.5 µM; in the assay on OVCAR-3 ovarian, 14 µM. Further, the TGI in the assay with SW-620 colon was determined as 10.5 µM; in the assay with U251 CNS it was 29.5 µM; in the assay on UO-31 renal, 31.5 µM.
Regarding `NC(=O)COc1c(Br)cc(Br)cc1Br`, the TGI in the assay on HT29 colon, in the assay on NCI-H226 lung, in the assay on OVCAR-3 ovarian, in the assay with U251 CNS and in the assay on UO-31 renal was over 100 µM throughout.
As for `CC1(C)Oc2ccc3c(=O)cc(-c4cccs4)oc3c2C1C(=O)O` (stereo not drawn), the TGI with DU-145 prostate, in the assay with HL-60(TB) leukemia, in the assay with HT29 colon, in the assay on NCI-H226 lung, in the assay on OVCAR-3 ovarian and with U251 CNS was over 100 µM in each case.
On to `COC(=O)c1ccccc1NC(=S)NN(C)C`, for which the TGI in the assay with DU-145 prostate, in the assay on HL-60(TB) leukemia, in the assay with LOX IMVI melanoma, in the assay with NCI-H226 lung, in the assay with OVCAR-3 ovarian and with SW-620 colon was over 100 µM each time. Moreover, the TGI with U251 CNS and with UO-31 renal was over 100 µM throughout.
`O=C(N/N=C\c1cccs1)c1ccncc1`: the TGI in the assay on HL-60(TB) leukemia, in the assay on HOP-92 NSCLC, in the assay with HT29 colon, in the assay with NCI-H226 lung, with OVCAR-3 ovarian and with SW-620 colon was over 100 µM each time. Also, the TGI in the assay with U251 CNS and in the assay on UO-31 renal was over 100 µM each time.
On to `COc1ccc(C2S/C(=C\c3cccc(OC)c3)C(=O)N2NC(=O)Cc2ccccc2)cc1` (stereo not drawn), for which the TGI with HL-60(TB) leukemia, in the assay on HOP-92 NSCLC, with HT29 colon, in the assay on LOX IMVI melanoma, in the assay on NCI-H226 lung and in the assay with SW-620 colon was over 100 µM each time. Further, the TGI in the assay on U251 CNS and in the assay on UO-31 renal was over 100 µM throughout.
In the case of `C/C=C/c1cc2c(c(=O)o1)C(=O)[C@@H](O)[C@H](C)O2`, the TGI in the assay with HL-60(TB) leukemia stood at 54.4 µM; with HOP-92 NSCLC it was 31.2 µM; in the assay with HT29 colon, 44.6 µM; in the assay on LOX IMVI melanoma, 26.4 µM; with NCI-H226 lung, 38.5 µM; with OVCAR-3 ovarian, 32.8 µM. In addition, the TGI was determined as 22.9 µM with SW-620 colon, 32.9 µM in the assay with U251 CNS and 37.2 µM in the assay with UO-31 renal.
Take `O=C(/C=C/c1ccc(OCc2ccccc2)cc1)NCc1ccc(C(=O)NCc2ccccc2)cc1`: the TGI in the assay on DU-145 prostate, with HOP-92 NSCLC, with HT29 colon, with LOX IMVI melanoma, in the assay with NCI-H226 lung and in the assay on OVCAR-3 ovarian was over 100 µM throughout. Moreover, the TGI in the assay on SW-620 colon, with U251 CNS and in the assay on UO-31 renal was over 100 µM in each case.
In the case of `O=C(NC12CC3CC(CC(C3)C1)C2)C(=O)c1c[nH]c2ccc(Br)cc12`, the TGI is over 100 µM in the assay with HL-60(TB) leukemia; 48.1 µM in the assay with HOP-92 NSCLC; 14.4 µM in the assay with HT29 colon; 18.4 µM in the assay on LOX IMVI melanoma; 41.8 µM with NCI-H226 lung; 38.6 µM with OVCAR-3 ovarian. The TGI is over 100 µM in the assay on SW-620 colon, 49.2 µM in the assay on U251 CNS and over 100 µM with UO-31 renal.
Turning to `O=S(=O)(c1ccccc1)c1nccs1`, the TGI with HL-60(TB) leukemia, with HT29 colon, with LOX IMVI melanoma, in the assay on NCI-H226 lung, in the assay with OVCAR-3 ovarian and with SW-620 colon was over 100 µM in each case. Besides, the TGI in the assay on U251 CNS and in the assay on UO-31 renal was over 100 µM each time.
For the molecule `CCOP(=O)(OCC)/C(C#N)=C\c1ccsc1`, the TGI in the assay on HOP-92 NSCLC, in the assay with HT29 colon, in the assay with LOX IMVI melanoma, in the assay with NCI-H226 lung, in the assay with OVCAR-3 ovarian and in the assay on SW-620 colon was over 100 µM throughout. For the same molecule, the TGI in the assay with U251 CNS and in the assay on UO-31 renal was over 100 µM each time.
Take `CCCc1n[nH]c(=O)n1N1C(=O)C=CC1=O`: the TGI in the assay with DU-145 prostate, in the assay with OVCAR-3 ovarian and in the assay on U251 CNS was over 100 µM throughout.
For the molecule `CC(=O)NNc1nc(C)c(C(/C=C/c2ccc([N+](=O)[O-])cc2)=N/NC(N)=O)s1`, the TGI in the assay with DU-145 prostate, in the assay with HOP-92 NSCLC, in the assay with HT29 colon, in the assay with LOX IMVI melanoma, in the assay with NCI-H226 lung and with OVCAR-3 ovarian was over 100 µM in each case. The TGI in the assay with SW-620 colon, in the assay with U251 CNS and in the assay on UO-31 renal was over 100 µM throughout.
